This passage reports TGI and GI50 results from PubChem BioAssay (NCI).

Common to all, as to experiment: NCI anticancer screen, dose series, 48 h
Assay [1] concerns MDA-N.
Assay [2] deals with U251 CNS.
Assay [3] relates to HCT-15 colon.
Assay [4] concerns MDA-MB-231 breast.
In assay [5] the test system is IGROV1 ovarian.
Assay [6] deals with SF-295 CNS.
The test system of assay [7] is DU-145 prostate.
Assay [8] concerns NCI-H460 lung.
Assay [9] deals with A498 renal.
Assay [10] relates to SW-620 colon.
Assay [11] concerns EKVX NSCLC.
Assay [12] deals with T-47D breast.
The subject of assay [13] is NCI-H226 lung.
Assay [14] has as its system RXF 393 renal.
In assay [15] the test system is MDA-MB-435.
The subject of assay [16] is HT29 colon.

Where “and” joins values, the source holds several entries; their conditions need not be identical. Equal entries are not always repeated.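 Assay format: 96-well plates, 48-hour exposure. GI50 marks 50% less growth. TGI is the concentration that stops growth completely.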

In the case of `CC(=O)NC1C(OC(C)C(=O)NC(C)C(=O)NC(CCC(=O)NCCCCCNc2ccc([N+](=O)[O-])c3[nH]c4ccccc4c(=O)c23)C(N)=O)C(O)C(CO)OC1(C)OCc1ccccc1` (stereo not given), the TGI in assay [1], in assay [2], in assay [3], in [4], in [5] and in assay [6] was over 100 µM throughout. Moreover, the TGI in assay [7], in [8], in assay [9], in assay [10], in assay [11] and in [12] was over 100 µM in each case. Further, the TGI in [13], in [14], in assay [15] and in assay [16] was over 100 µM throughout.
In the case of `N#CC(c1ccccc1)N(CCCCCCN(C(=O)c1ccccc1)C(C#N)c1ccccc1)C(=O)c1ccccc1` (stereo not given), the TGI in assay [1], in assay [2], in assay [3], in assay [4], in assay [5] and in assay [6] was over 100 µM throughout. Moreover, the TGI in assay [7] is over 100 µM; in [8], 84.2 µM; in assay [9], 55.9 µM; in [10], over 100 µM; in assay [11] it was over 100 µM; in assay [12] it was over 100 µM. In addition, the TGI in assay [13] was over 100 µM; in [14], over 100 µM; in assay [15] it was 73.6 µM; in assay [16], over 100 µM.
In the case of `CCOc1cc(C2CC(c3ccc(NS(=O)(=O)c4cc([N+](=O)[O-])ccc4C)cc3)=NN2S(=O)(=O)c2cc([N+](=O)[O-])ccc2C)ccc1O` (stereo not given), the TGI in [1], in assay [2], in [3], in assay [4], in [5] and in [6] was over 100 µM throughout. The TGI in assay [7] was over 100 µM; in [9], 22 µM; in assay [10], over 100 µM; in assay [11], 82.2 µM; in assay [12], 65.1 µM; in [13] it was over 100 µM. Also, the TGI is 70.7 µM in assay [14], over 100 µM in assay [15] and over 100 µM in [16].
As for `CN=C1Nc2ccccc2C(=O)N2CSCC12` (stereo not given), the TGI in assay [1], in assay [2], in [3], in [4], in [5] and in assay [6] was over 100 µM in each case. Moreover, the TGI in assay [7], in [8], in [9], in assay [10], in assay [11] and in assay [12] was over 100 µM each time. For the same compound, the TGI in [13], in assay [14], in assay [15] and in [16] was over 100 µM each time.
Regarding `CC1OC(OC2C(OC(=O)[C@]34CCC(C)(C)C[C@H]3C3=CC[C@@H]5[C@@]6(C)CC[C@H](OC7OC(C(=O)O)C(O)C(O)C7O)C(C)(C)[C@@H]6CC[C@@]5(C)[C@]3(C)C[C@H]4O)OCC(O)C2O)C(O)C(O)C1OC1OCC(O)C(O)C1O` (stereo not given in full), the TGI in assay [1] was 27.3 µM and 23.5 µM; in assay [2] it was 29.1 µM and 24.3 µM; in assay [3], 31.6 µM and 33.7 µM; in assay [4], 22.3 µM and 8.24 µM; in assay [5], 31.5 µM and 27.8 µM; in assay [6], 29.6 µM and 22.1 µM. Moreover, the TGI is 28.9 µM and 27.4 µM in assay [7]; 48.3 µM and 33.7 µM in assay [8]; 6.22 µM and 3.63 µM in [9]; 32.8 µM and 27.7 µM in [10]; 21.3 µM and 13 µM in [11]; 96.2 µM and 30.6 µM in [12]. Also, the TGI was 19.2 µM and 25.9 µM in assay [13]; 35.4 µM and 31.6 µM in assay [14]; 30.3 µM and 18.2 µM in assay [15]; 20.2 µM and 17 µM in assay [16]. Besides, the GI50 in [4] is 9.19 µM and 3.49 µM; in [11], 7.47 µM and 3.7 µM; in [15] it was 16 µM and 5.32 µM.
Turning to `CNC(=O)C(C)NC(=O)C(Cc1ccccc1)NC(=O)c1ccccc1` (stereo not given), the TGI in assay [1], in assay [2], in assay [3], in assay [4], in assay [5] and in assay [6] was over 100 µM in each case. The TGI in assay [7], in assay [8], in [9], in assay [10], in assay [11] and in assay [12] was over 100 µM throughout. Also, the TGI in assay [13], in assay [14], in assay [15] and in assay [16] was over 100 µM throughout.
Turning to `NC(=O)C1CCCN1C(=O)C(Cc1cnc[nH]1)NC(=O)C1CCCC1` (stereo not given), the TGI in [1], in [2], in assay [3], in assay [4], in assay [5] and in assay [6] was over 100 µM in each case. Besides, the TGI in assay [7], in [8], in [9], in assay [10], in assay [11] and in assay [12] was over 100 µM in each case. The TGI in [13], in assay [14], in [15] and in [16] was over 100 µM each time.
Take `NC1N=C(c2ccc(Cl)cc2)C2=C(N1)c1ccccc1CC2` (stereo not given): the TGI in assay [1] was over 100 µM; in [2] it was over 100 µM; in [3], over 100 µM; in [4] it was over 100 µM; in assay [5], over 57.1 µM; in [6] it was over 100 µM. Besides, the TGI in assay [7] was over 100 µM; in [8] it was over 100 µM; in [9], over 100 µM; in assay [10], over 78.4 µM; in [11], over 100 µM; in assay [12], over 100 µM. In addition, the TGI in assay [13] was 54.3 µM; in assay [14] it was 50.1 µM; in assay [15] it was over 22.6 µM; in assay [16] it was 28.4 µM.
On to `CC1CC(N)=C(C#N)C1(C#N)C#N` (stereo not given), for which the TGI in assay [1], in assay [2], in assay [3], in assay [4], in [5] and in [6] was over 100 µM throughout. Besides, the TGI in [7], in assay [9], in assay [10], in assay [11], in assay [12] and in assay [13] was over 100 µM in each case. In addition, the TGI in [14], in [15] and in assay [16] was over 100 µM throughout.
As to `CCN1CCC(O)(c2ccc(Oc3ccc(Cl)cc3)cc2)C(C(=O)c2ccc(Oc3ccc(Cl)cc3)cc2)C1` (stereo not given), the TGI is 27 µM in assay [1]; 19.9 µM in assay [3]; 29.4 µM in [4]; 23.5 µM in assay [5]; 27.4 µM in [6]; 34.3 µM in assay [7]. In addition, the TGI is 14.9 µM in assay [8]; 23.4 µM in assay [9]; 50.9 µM in assay [10]; 34.5 µM in assay [11]; 36.6 µM in assay [12]; 34.5 µM in assay [13]. Further, the TGI in assay [14] was found to be 46.8 µM; in assay [15], 38.8 µM; in [16], 17.7 µM.
Regarding `C=CCN(c1cc(OC)c(NC(C)=O)cc1[N+](=O)[O-])S(C)(=O)=O`, the TGI in assay [1], in assay [2], in assay [3], in [4], in assay [5] and in assay [6] was over 100 µM in each case. The TGI in assay [7], in [8], in assay [9], in [10], in assay [11] and in assay [12] was over 100 µM throughout. Further, the TGI in assay [13], in assay [14] and in assay [15] was over 100 µM throughout.
On to `CCn1cc2c(=O)n3ncn(-c4ccc(Br)cc4)c3nc2n1`, for which the TGI in assay [1], in assay [2], in [3], in assay [4], in assay [5] and in assay [6] was over 100 µM in each case. The TGI in [7], in assay [9], in assay [10], in [11], in [12] and in assay [13] was over 100 µM each time. In addition, the TGI in [14], in [15] and in [16] was over 100 µM in each case.
Take `CSC12c3cc(C)n(-c4ccc([N+](=O)[O-])cc4)c3CC(C)(C)CN1C(=O)C2Oc1ccccc1` (stereo not given): the TGI in assay [1], in assay [2], in [3], in assay [4], in assay [5] and in assay [6] was over 100 µM each time. Also, the TGI in assay [7], in assay [8], in [9], in assay [10], in [11] and in assay [12] was over 100 µM in each case. For the same compound, the TGI in assay [13], in [14] and in assay [15] was over 100 µM throughout.
For `CCOC(=O)C(C(=O)OCC)=C1SC(=Nc2ccccc2)C(=Nc2ccccc2)N1c1ccccc1`, the TGI in [1], in [2], in assay [3], in assay [4], in assay [5] and in [6] was over 100 µM throughout. For the same compound, the TGI in [7], in assay [8], in [9], in [11], in assay [12] and in assay [13] was over 100 µM throughout. Moreover, the TGI in assay [14], in assay [15] and in [16] was over 100 µM each time.
For `Cc1ccc(O)c(C(c2cccc(C(c3cc(C)ccc3O)c3cc(C)ccc3O)c2)c2cc(C)ccc2O)c1`, the TGI in assay [1] was determined as 3.35 µM; in [2] it was 3.32 µM; in assay [3], 3.31 µM; in assay [4] it was 2.83 µM; in assay [5] it was 3.02 µM; in assay [6] it was 3.91 µM. In addition, the TGI in assay [7] was found to be 2.84 µM; in assay [9], 2.97 µM; in [10], 3.2 µM; in [11] it was 3.63 µM; in assay [12], 4.45 µM; in assay [13], 3.31 µM. Moreover, the TGI turned out to be 3.2 µM in assay [14], 3.26 µM in assay [15] and 3.16 µM in [16].
Turning to `COc1cccc(/C=N/n2c(Cc3ccccc3)n[nH]c2=O)c1`, the TGI in [1], in assay [2], in [3], in assay [4], in [6] and in [7] was over 100 µM each time. Moreover, the TGI in [8] is over 100 µM; in assay [9], over 100 µM; in assay [10], over 100 µM; in assay [11] it was over 100 µM; in assay [12], over 100 µM; in assay [13] it was over 25.6 µM. Besides, the TGI in assay [14], in assay [15] and in assay [16] was over 100 µM each time.
For `CC(=O)OC[C@H]1CN(OC(C)=O)C[C@@H](n2cc(C)c(=O)[nH]c2=O)O1`, the TGI in assay [1], in [2], in assay [3], in assay [4], in assay [5] and in [6] was over 100 µM each time. Further, the TGI in assay [7], in assay [8], in [9], in assay [10], in assay [11] and in assay [12] was over 100 µM in each case. Moreover, the TGI in assay [13], in [14] and in assay [15] was over 100 µM each time.
